{"source": "paper PMC5365648", "about": "“Pharmacokinetics of the Novel Echinocandin CD101 in Multiple Animal Species” (Antimicrobial Agents and Chemotherapy, 2017)", "assay": "Rat pharmacokinetics, i.v. bolus", "type": "in vivo, Sprague-Dawley rats", "details": "for half-life / clearance / Vd / AUC(0-inf) / AUC(0-t) / Cmax / Tmax: rat, in vivo, iv; for Tmax: read-out: Tmax", "experimental": "In one of three rat studies reported here, a single 5-, 15-, or 45-mg/kg dose of CD101 was administered by slow i.v. bolus (∼3 min) to Sprague-Dawley rats (n = 3 to 5/dose). Blood samples (via jugular vein catheter [JVC]) were drawn for plasma processing at 0.083, 0.25, 0.5, 1, 2, 4, 8, 24, 48, 120, 168, and 240 h after dosing. In the second rat study, conducted to assess tissue distribution, a single 5-mg/kg dose of CD101 was administered by slow i.v. bolus (∼3 min) to male Sprague-Dawley rats (n = 3 animals/time point). Blood samples (via cardiac puncture) were collected for plasma processing predose and at 0.083, 0.5, 1, 2, 4, 8, 24, 48, 72, 96, and 120 h postdose. In parallel with blood collection, animals were euthanized, and tissues (liver, lungs, kidneys, heart, spleen, and brain) were excised and frozen prior to analysis. In the third rat study, conducted to assess excretion, a single 5-mg/kg dose of CD101 was administered by slow i.v. bolus (∼3 min) to bile duct-cannulated male Sprague-Dawley rats (n = 3). Bile samples were collected from each animal into prelabeled bile collection tubes predose and at 0 to 8, 8 to 24, 24 to 48, 48 to 72, 72 to 96, and 96 to 120 h postdose; urine samples were collected from each animal at the same time points pre- and postdose.\nFor each of the pharmacokinetic studies, whole-blood samples (K3EDTA as anticoagulant) were collected and centrifuged within 30 min of collection. The resulting plasma was harvested and stored at −20°C until analysis. Tissue samples were homogenized by a bead-based homogenizer following the addition of deionized water to excised tissue in a 2:1 (vol/wt) ratio and stored at −20°C until analysis. Prior to analysis, plasma or homogenized tissue samples were quenched with acetonitrile (3:1, acetonitrile-plasma or tissue ratio) containing an appropriate internal standard (isotopically labeled d9-CD101 [mouse and rat] or a structural analog [dog, monkey, and chimpanzee]). Plasma and tissue homogenate concentrations (quantified against calibration standards processed the same way) were determined by reverse-phase, gradient liquid chromatography with tandem mass spectrometric detection (LC-MS/MS) using an AB-SCIEX API 3200Q/4000 mass spectrometry system. Calibration standard ranges were the following: 0.400 (lower limit of quantitation, [LLOQ]) to 200 μg/ml (CD101, mouse), 0.040 (LLOQ) to 10 μg/ml (anidulafungin, mouse), 0.002 (LLOQ) to 10 μg/ml (CD101, rat), 0.005 (LLOQ) to 10 μg/ml (anidulafungin, rat), 0.050 (LLOQ) to 10 μg/ml (CD101, dog), 0.020 (LLOQ) to 10 μg/ml (anidulafungin, dog), 0.010 (LLOQ) to 10 μg/ml (CD101, monkey), 0.001 (LLOQ) to 10 μg/ml (anidulafungin, monkey), 0.015 (LLOQ) to 10 μg/ml (CD101, chimpanzee), and 0.015 (LLOQ) to 10 μg/ml (anidulafungin, chimpanzee). When necessary, dilutions with blank matrix were made for samples that quantified above the upper limit of quantitation. The methods used in the analysis were qualified as fit for purpose: calibration standards were matrix matched with the exception that human plasma calibration standards were used to analyze chimpanzee plasma samples due to the rarity of blank chimpanzee plasma, and, for each analytical batch, triplicate calibration standards were included at the beginning, approximately in the middle, and at the end of the batch. Following analysis, quantitation was carried out by a calibration curve comprising the analyte/internal standard area ratio versus concentration. Analytical batch acceptance followed the general guidance that triplicate standards/quality controls be within ±20% for accuracy (percentage of nominal concentration) and ≤20% for precision (percent coefficient of variation).\nPharmacokinetic parameters were calculated by noncompartmental analysis using Phoenix WinNonlin (version 6.3; Pharsight, Mountain View, CA) from either individual or mean (mouse) concentration-time profiles. An unpaired t test was used to compare mean exposures from male and female rats.", "key": {"[1]": {"details": "15 mg/kg, female Sprague-Dawley rats, single 15 mg/kg slow i.v. bolus, plasma, LC-MS/MS, noncompartmental, n = 3 to 5/dose"}, "[2]": {"details": "15 mg/kg, male Sprague-Dawley rats, single 15 mg/kg slow i.v. bolus, plasma, LC-MS/MS, noncompartmental, n = 3 to 5/dose"}, "[3]": {"details": "45 mg/kg, female Sprague-Dawley rats, single 45 mg/kg slow i.v. bolus, plasma, LC-MS/MS, noncompartmental, n = 3 to 5/dose"}, "[4]": {"details": "45 mg/kg, male Sprague-Dawley rats, single 45 mg/kg slow i.v. bolus, plasma, LC-MS/MS, noncompartmental, n = 3 to 5/dose"}}, "note": "“Also recorded” adds a separate entry of the source. Read-outs that look alike come from different tables or passages of the source. Starred links: 1 amine or outer side, 2 acyl side, 3 side chain; linkers in the order of their positions; H or OH if unused. Positions of bridges follow the written chain, without caps; N, C: chain ends. Non-standard residues stand in square brackets, D forms with d. Residues, ends and D or L forms follow the SMILES beside them. *: point of attachment. Orn(4R-OH,5R-OCH2CH2NMe3+) = C[N+](C)(C)CCO[C@@H](N[*:3])[C@H](O)C[C@H](N[*:1])C(=O)[*:2]; pTerphenylCO(4''-OnC5H11) = CCCCCOc1ccc(-c2ccc(-c3ccc(C(=O)*)cc3)cc2)cc1; hTyr(3S-OH,4S-OH) = N[C@H](C(=O)O)[C@H](O)[C@@H](O)c1ccc(O)cc1; Pro(3S-OH,4S-Me) = C[C@H]1CN[C@H](C(=O)O)[C@H]1O; Hyp = O=C(O)[C@@H]1C[C@@H](O)CN1"}
{"smiles": "CCCCCOc1ccc(-c2ccc(-c3ccc(C(=O)N[C@H]4C[C@@H](O)[C@@H](OCC[N+](C)(C)C)NC(=O)[C@@H]5[C@@H](O)[C@@H](C)CN5C(=O)[C@H]([C@@H](C)O)NC(=O)[C@H]([C@H](O)[C@@H](O)c5ccc(O)cc5)NC(=O)[C@@H]5C[C@@H](O)CN5C(=O)[C@H]([C@@H](C)O)NC4=O)cc3)cc2)cc1", "note": "[CD101] ({pTerphenylCO(4''-OnC5H11)}-[Orn(4R-OH,5R-OCH2CH2NMe3+)]T[Hyp][hTyr(3S-OH,4S-OH)]T[Pro(3S-OH,4S-Me)]; lactam 1-C)", "values": [{"measurement": "half-life", "setting": "5 mg/kg, male Sprague-Dawley rats, single 5 mg/kg slow i.v. bolus, plasma, LC-MS/MS, noncompartmental, n = 3 to 5/dose", "value": 34.9, "unit": "h"}, {"measurement": "clearance", "setting": "5 mg/kg, male Sprague-Dawley rats, single 5 mg/kg slow i.v. bolus, plasma, LC-MS/MS, noncompartmental, n = 3 to 5/dose, read-out: CL (clearance)", "value": 0.456, "unit": "mL/min/kg"}, {"measurement": "Vd", "setting": "5 mg/kg, male Sprague-Dawley rats, single 5 mg/kg slow i.v. bolus, plasma, LC-MS/MS, noncompartmental, n = 3 to 5/dose, read-out: Vss (volume of distribution at steady state)", "value": 1.16, "unit": "L/kg"}, {"measurement": "AUC(0-inf)", "setting": "[1]", "value": 441, "unit": "µg·h/mL"}, {"measurement": "AUC(0-t)", "setting": "[1]", "value": 435, "unit": "µg·h/mL"}, {"measurement": "Cmax", "setting": "[1]", "value": 27.6, "unit": "µg/mL"}, {"measurement": "half-life", "setting": "[1]", "value": 34.9, "unit": "h"}, {"measurement": "clearance", "setting": "15 mg/kg, female Sprague-Dawley rats, single 15 mg/kg slow i.v. bolus, plasma, LC-MS/MS, noncompartmental, n = 3 to 5/dose, read-out: CL (clearance)", "value": 0.567, "unit": "mL/min/kg"}, {"measurement": "Vd", "setting": "15 mg/kg, female Sprague-Dawley rats, single 15 mg/kg slow i.v. bolus, plasma, LC-MS/MS, noncompartmental, n = 3 to 5/dose, read-out: Vss (volume of distribution at steady state)", "value": 1.45, "unit": "L/kg"}, {"measurement": "AUC(0-inf)", "setting": "[2]", "value": 580, "unit": "µg·h/mL"}, {"measurement": "AUC(0-t)", "setting": "[2]", "value": 562, "unit": "µg·h/mL"}, {"measurement": "Cmax", "setting": "[2]", "value": 35.9, "unit": "µg/mL"}, {"measurement": "half-life", "setting": "[2]", "value": 42.7, "unit": "h"}, {"measurement": "clearance", "setting": "15 mg/kg, male Sprague-Dawley rats, single 15 mg/kg slow i.v. bolus, plasma, LC-MS/MS, noncompartmental, n = 3 to 5/dose, read-out: CL (clearance)", "value": 0.431, "unit": "mL/min/kg"}, {"measurement": "Vd", "setting": "15 mg/kg, male Sprague-Dawley rats, single 15 mg/kg slow i.v. bolus, plasma, LC-MS/MS, noncompartmental, n = 3 to 5/dose, read-out: Vss (volume of distribution at steady state)", "value": 1.42, "unit": "L/kg"}, {"measurement": "AUC(0-inf)", "setting": "[3]", "value": 1510, "unit": "µg·h/mL"}, {"measurement": "AUC(0-t)", "setting": "[3]", "value": 1490, "unit": "µg·h/mL"}, {"measurement": "Cmax", "setting": "[3]", "value": 115, "unit": "µg/mL"}, {"measurement": "half-life", "setting": "[3]", "value": 39.9, "unit": "h"}, {"measurement": "clearance", "setting": "45 mg/kg, female Sprague-Dawley rats, single 45 mg/kg slow i.v. bolus, plasma, LC-MS/MS, noncompartmental, n = 3 to 5/dose, read-out: CL (clearance)", "value": 0.496, "unit": "mL/min/kg"}, {"measurement": "Vd", "setting": "45 mg/kg, female Sprague-Dawley rats, single 45 mg/kg slow i.v. bolus, plasma, LC-MS/MS, noncompartmental, n = 3 to 5/dose, read-out: Vss (volume of distribution at steady state)", "value": 1.55, "unit": "L/kg"}, {"measurement": "AUC(0-inf)", "setting": "[4]", "value": 1660, "unit": "µg·h/mL"}, {"measurement": "AUC(0-t)", "setting": "[4]", "value": 1610, "unit": "µg·h/mL"}, {"measurement": "Cmax", "setting": "[4]", "value": 164, "unit": "µg/mL"}, {"measurement": "half-life", "setting": "[4]", "value": 44.5, "unit": "h"}, {"measurement": "clearance", "setting": "45 mg/kg, male Sprague-Dawley rats, single 45 mg/kg slow i.v. bolus, plasma, LC-MS/MS, noncompartmental, n = 3 to 5/dose, read-out: CL (clearance)", "value": 0.452, "unit": "mL/min/kg"}, {"measurement": "Vd", "setting": "45 mg/kg, male Sprague-Dawley rats, single 45 mg/kg slow i.v. bolus, plasma, LC-MS/MS, noncompartmental, n = 3 to 5/dose, read-out: Vss (volume of distribution at steady state)", "value": 1.57, "unit": "L/kg"}, {"measurement": "Vd", "setting": "intravenous, one value for the species as given in the abstract (doses 5, 15, 45 mg/kg, both sexes in Table 1), read-out: Vss", "value": 1.39, "unit": "L/kg"}, {"measurement": "clearance", "setting": "intravenous, one value for the species as given in the abstract (doses 5, 15, 45 mg/kg, both sexes in Table 1), read-out: clearance", "value": 0.47, "unit": "mL/min/kg"}, {"measurement": "Tmax", "setting": "female Sprague-Dawley rats, single 15 mg/kg slow i.v. bolus, plasma, LC-MS/MS, noncompartmental, n = 3 to 5/dose", "value": 4.98, "unit": "min"}, {"measurement": "Tmax", "setting": "female Sprague-Dawley rats, single 45 mg/kg slow i.v. bolus, plasma, LC-MS/MS, noncompartmental, n = 3 to 5/dose", "value": 4.98, "unit": "min"}, {"measurement": "Tmax", "setting": "male Sprague-Dawley rats, single 5 mg/kg slow i.v. bolus, plasma, LC-MS/MS, noncompartmental, n = 3 to 5/dose", "value": 4.98, "unit": "min"}, {"measurement": "half-life", "setting": "one value for the species as given in the abstract (doses 5, 15, 45 mg/kg, both sexes in Table 1)", "value": 39, "unit": "h"}, {"measurement": "PK differences between males and females", "setting": "rats (Table 1) or monkeys (data not shown)", "value": "no sex differences; also recorded: No PK differences between males and females"}]}
